Drawing on US20230219965A1 (KSQ Therapeutics, Inc., priority 2020, published 2023), this text covers IC50 for 37 molecules.

pIC50: −log10 of the molar value.

The assay has as its target USP1/UAF1 enzyme (Homo sapiens, UniProt O94782). Nature of the assay: USP1/UAF1 deubiquitination assay (ubiquitin-rhodamine 110 substrate). It counts as biochemical. As to conditions: read-out: USP1 IC50 (Ub-Rho). The procedure:
Certain Compounds of the Disclosure were assessed for USP1/UAF1 activity in a Ubiquitin Rhodamine assay modified from those described previously.
Deubiquitinase activity was measured using ubiquitin-rhodamine 110 as a substrate. Cleavage of the amide bond between rhodamine and the c-terminal glycine of ubiquitin yields an increase in fluorescence signal. The assay was conducted in 20 μl total volume of assay buffer (50 mM Tris-HCl, pH 7.8, 0.5 mM EDTA, 0.01% Bovine Serum Albumin, 1 mM DTT, 0.01% Tween-20), and 0.05 nM USP1/UAF1 enzyme. Reaction was initiated by addition of 150 nM Ubiquitin-rhodamine (Boston Biochem) substrate.
Compounds of the Disclosure, dissolved in DMSO were tested in dose response format, beginning at […].
The example compounds listed below were added to enzyme/assay buffer mix and incubated 10 min. Substrate mix was added, and reaction mix was read in kinetic mode for 30 min at Ex480/Em540 and IC50 response curves were plotted.
Data for all assay formats was calculated as percent inhibition compared with control wells. Percent inhibition was calculated using the following equation: % inhibition=100×[1−(X−min)/(max−min)], where X is the raw data readout, min is the average of the no enzyme control wells (n=32), max is the average of the DMSO control well (n=32). IC50 values were calculated using the standard four parameter curve fitting algorithm in either Prism GraphPad (La Jolla, Calif.) software, or Collaborative Drug Discovery (Burlingame, Calif.) CDD Vault. See Chem. Biol. 20(1): 55-62 (Jan. 24, 2013); Bioorg. Med. Chem. Lett. 23(20): 5660-5666 (Oct. 15, 2013).

Sequence of USP1/UAF1 enzyme (O94782 whole entry): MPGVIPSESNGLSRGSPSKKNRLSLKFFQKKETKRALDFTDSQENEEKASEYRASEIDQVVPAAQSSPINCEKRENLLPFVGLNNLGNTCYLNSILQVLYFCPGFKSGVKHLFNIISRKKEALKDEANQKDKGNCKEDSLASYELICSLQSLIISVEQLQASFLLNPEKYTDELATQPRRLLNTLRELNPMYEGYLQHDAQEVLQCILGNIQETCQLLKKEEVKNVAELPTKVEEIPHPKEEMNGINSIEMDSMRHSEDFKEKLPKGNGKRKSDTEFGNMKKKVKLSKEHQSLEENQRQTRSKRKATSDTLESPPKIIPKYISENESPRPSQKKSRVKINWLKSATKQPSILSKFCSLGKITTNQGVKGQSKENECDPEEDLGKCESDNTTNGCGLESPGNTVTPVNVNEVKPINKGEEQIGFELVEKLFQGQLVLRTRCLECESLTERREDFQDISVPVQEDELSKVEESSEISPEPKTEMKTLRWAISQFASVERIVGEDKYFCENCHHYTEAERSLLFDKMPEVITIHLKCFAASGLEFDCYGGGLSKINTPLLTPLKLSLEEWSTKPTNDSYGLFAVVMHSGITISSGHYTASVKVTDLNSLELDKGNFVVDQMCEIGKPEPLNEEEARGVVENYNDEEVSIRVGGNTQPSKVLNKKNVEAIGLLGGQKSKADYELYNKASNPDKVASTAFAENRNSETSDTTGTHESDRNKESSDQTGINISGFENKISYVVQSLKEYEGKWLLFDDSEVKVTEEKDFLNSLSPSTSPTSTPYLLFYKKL
Sequence of USP1/UAF1 enzyme (Q8TAF3 whole entry partner): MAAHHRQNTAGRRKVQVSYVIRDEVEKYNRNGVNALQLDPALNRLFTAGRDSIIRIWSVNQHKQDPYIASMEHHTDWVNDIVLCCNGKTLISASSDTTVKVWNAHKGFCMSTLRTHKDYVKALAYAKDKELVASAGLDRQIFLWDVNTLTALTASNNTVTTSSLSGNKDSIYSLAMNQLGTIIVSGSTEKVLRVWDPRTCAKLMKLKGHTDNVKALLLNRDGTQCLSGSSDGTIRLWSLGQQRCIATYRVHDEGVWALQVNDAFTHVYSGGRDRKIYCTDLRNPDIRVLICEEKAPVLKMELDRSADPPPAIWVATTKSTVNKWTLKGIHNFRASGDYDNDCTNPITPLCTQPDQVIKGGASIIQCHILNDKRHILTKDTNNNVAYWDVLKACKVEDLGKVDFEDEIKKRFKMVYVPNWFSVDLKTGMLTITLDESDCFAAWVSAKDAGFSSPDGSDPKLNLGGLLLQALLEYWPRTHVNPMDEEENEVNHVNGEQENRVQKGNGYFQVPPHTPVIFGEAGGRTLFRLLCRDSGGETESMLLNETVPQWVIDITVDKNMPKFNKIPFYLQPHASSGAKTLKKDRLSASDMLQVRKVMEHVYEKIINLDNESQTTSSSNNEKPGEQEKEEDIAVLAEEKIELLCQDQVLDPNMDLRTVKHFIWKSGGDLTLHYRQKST

With `CCn1cc(C(F)(F)F)nc1-c1ccc(CN2C(=O)CCn3nc(-c4c(OC)ncnc4C4CC4)cc32)cc1OC` [Example 136], the pIC50 (in general, the IC50 on a negative log10 scale, so that one unit is a factor of ten) is 6.30 to 7.00.

On to `CCn1cc(C(F)(F)F)nc1-c1ccc(CN2C(=O)CCn3nc(-c4c(OC)ncnc4C4CC4)cc32)nc1` [Example 137], for which the pIC50 is 6.30 to 7.00.

On to `COc1ncnc(C2(C)CC2)c1-c1cc2n(n1)CCC(=O)N2Cc1ccc(-c2nc(C(F)(F)F)cn2C)c(F)c1` [Example 149, 4-(3-fluoro-4-(1-methyl-4-(trifluoromethyl)-1H-imidazol-2-yl)benzyl)-2-(4-methoxy-6-(1-methylcyclopropyl)pyrimidin-5-yl)-6,7-dihydropyrazolo[1,5-α]pyrimidin-5(4H)-one], for which the pIC50 is 6.30 to 7.00.

Take `CCn1cc(C(F)(F)F)nc1-c1ccc(CN2C(=O)CCn3nc(-c4c(Cl)cnn4C4CCOC4)cc32)cc1` (stereo not shown) [Example 150]: the pIC50 is 6.30 to 7.00.

For the molecule `COc1cnn(C(C)C)c1-c1cc2n(n1)CCC(=O)N2Cc1ccc(-c2nc(C(F)(F)F)cn2C(C)C)cc1` [Example 152], the pIC50 was 6.30 to 7.00.

Take `CCn1cc(C(F)(F)F)nc1-c1ccc(CN2C(=O)CCn3nc(-c4c(OC)cnn4C(C)C)cc32)cc1` [Example 155]: the pIC50 was 6.30 to 7.00.

As for `CCn1cc(C(F)(F)F)nc1-c1ccc(CN2C(=O)CCn3nc(-c4c(C(C)(C)C)cnn4C)cc32)cc1` [Example 157], the pIC50 was 6.30 to 7.00.

Turning to `CCn1cc(C(F)(F)F)nc1-c1ccc(CN2C(=O)CCn3nc(-c4c(C(C)C)cnn4C)cc32)cc1` [Example 158], the pIC50 is below 6.30.

Consider `CCn1cc(C(F)(F)F)nc1-c1ccc(CN2C(=O)CCn3nc(-c4c(C5CC5)cnn4C(C)C)cc32)cc1` [Example 161], for which the pIC50 was 6.30 to 7.00.

Turning to `CCn1cc(C(F)(F)F)nc1-c1ccc(CN2C(=O)CCn3nc(-c4c(Cl)cnn4CCO)cc32)cc1F` [Example 163], the pIC50 was 6.30 to 7.00.

`CCn1cc(C(F)(F)F)nc1-c1ccc(CN2C(=O)CCn3nc(-c4c(OC)ncnc4C4CC4)nc32)cc1OC` [Example 185]: the pIC50 was 6.30 to 7.00.

In the case of `CCn1cc(C(F)(F)F)nc1-c1ccc(CN2C(=O)CCn3nc(-c4c(OC)ncnc4C4CC4)nc32)cc1OC(F)F` [Example 192], the pIC50 is 6.30 to 7.00.

For `CCn1cc(C#N)nc1-c1ccc([C@H](C)N2C(=O)CCn3nc(-c4c(OC)ncnc4C4CC4)nc32)cc1` [Example 198], the pIC50 was below 6.30.

As for `CCn1cc(C#N)nc1-c1ccc([C@@H](C)N2C(=O)CCn3nc(-c4c(OC)ncnc4C4CC4)nc32)cc1` [Example 199], the pIC50 was 6.30 to 7.00.

For `COc1ncnc(C2CC2)c1-c1nc2n(n1)CCC(=O)N2C(C)c1ccc(-n2nc(C(F)(F)F)cc2OCC(F)F)cc1` (stereo not shown) [Example 214], the negative-log IC50 (pIC50) was above 7.00.

On to `CC(c1ccc(-n2nc(C(F)(F)F)cc2OCC(F)F)cc1)N1C(=O)CCn2nc(-c3c(Cl)cnn3C(C)C)nc21` (stereo not shown) [Example 215], for which the pIC50 is 6.30 to 7.00.

Take `COc1ncnc(C2CC2)c1-c1nc2n(n1)CCC(=O)N2C(C)c1ccc(-c2nc(C(F)(F)F)cn2C(C)C)c(F)c1OC` (stereo not shown) [Example 218]: the pIC50 is 6.30 to 7.00.

In the case of `COc1ncnc(C2CC2)c1-c1nc2n(n1)CCC(=O)N2C(C)c1ccc(-c2ncccc2N(C)C)cc1` (stereo not shown) [Example 219], the pIC50 was above 7.00.

For the molecule `COc1ncnc(C2CC2)c1-c1nc2n(n1)CCC(=O)N2C(C)c1ccc(-c2ncccc2OC(C)C)cc1` (stereo not shown) [Example 220], the pIC50 was above 7.00.

In the case of `CNCc1cc(C(F)(F)F)nn1-c1ccc(CN2C(=O)CCn3nc(-c4c(Cl)cnn4C(C)C)cc32)cc1` [Example 224, 2-(4-chloro-1-isopropyl-1H-pyrazol-5-yl)-4-(4-(5-((methylamino)methyl)-3-(trifluoromethyl)-1H-pyrazol-1-yl)benzyl)-6,7-dihydropyrazolo[1,5-α]pyrimidin-5(4H)-one], the pIC50 is 6.30 to 7.00.

On to `CNCc1cc(C(F)(F)F)nn1-c1ccc(CN2C(=O)CCn3nc(-c4c(OC)ncnc4C4CC4)cc32)cc1` [Example 225, 2-(4-cyclopropyl-6-methoxypyrimidin-5-yl)-4-(4-(5-((methylamino)methyl)-3-(trifluoromethyl)-1H-pyrazol-1-yl)benzyl)-6,7-dihydropyrazolo[1,5-a]pyrimidin-5(4H)-one], for which the pIC50 is 6.30 to 7.00.

As for `CC(C)n1ncc(Cl)c1-c1cc2n(n1)CCC(=O)N2Cc1ccc(OCc2ccccn2)cc1` [Example 226, 2-(4-chloro-1-isopropyl-1H-pyrazol-5-yl)-4-(4-(pyridin-2-ylmethoxy)benzyl)-6,7-dihydropyrazolo[1,5-α]pyrimidin-5(4H)-one], the pIC50 was 6.30 to 7.00.

Turning to `CCn1cc(C(F)(F)F)nc1-c1ccc(CN2C(=O)CCn3nc(-c4c(Cl)cnn4C(C)CO)cc32)cc1` (stereo not drawn) [Example 227, 2-(4-chloro-1-(1-hydroxypropan-2-yl)-1H-pyrazol-5-yl)-4-(4-(1-ethyl-4-(trifluoromethyl)-1H-imidazol-2-yl)benzyl)-6,7-dihydropyrazolo[1,5-α]pyrimidin-5(4H)-one], the pIC50 is 6.30 to 7.00.

In the case of `CC(C)n1cc(C(F)(F)F)nc1-c1ccc(CN2C(=O)CCn3nc(-c4c(Cl)cnn4C(C)C)nc32)cc1OCCO` [Example 228, 2-(4-chloro-1-isopropyl-1H-pyrazol-5-yl)-4-(3-(2-hydroxyethoxy)-4-(1-isopropyl-4-(trifluoromethyl)-1H-imidazol-2-yl)benzyl)-6,7-dihydro-[1,2,4]triazolo[1,5-α]pyrimidin-5(4H)-one], the pIC50 is 6.30 to 7.00.

For the molecule `CCn1cc(C(F)(F)F)nc1-c1ccc(CN2C(=O)CCn3nc(-c4c(Cl)cnn4C(C)C)c(N)c32)cc1` [Example 229, 3-amino-2-(4-chloro-1-isopropyl-1H-pyrazol-5-yl)-4-(4-(1-ethyl-4-(trifluoromethyl)-1H-imidazol-2-yl)benzyl)-6,7-dihydropyrazolo[1,5-α]pyrimidin-5(4H)-one], the pIC50 was 6.30 to 7.00.

In the case of `CC(C)n1ncc(Cl)c1-c1cc2n(n1)CCC(=O)N2Cc1ccc(-n2ccc(N3CCOCC3)n2)cc1` [Example 230, 2-(4-chloro-1-isopropyl-1H-pyrazol-5-yl)-4-(4-(3-morpholino-1H-pyrazol-1-yl)benzyl)-6,7-dihydropyrazolo[1,5-α]pyrimidin-5(4H)-one], the pIC50 is below 6.30.

`CCn1cc(C(F)(F)F)nc1-c1ccc(CN2C(=O)C(NC(C)=O)Cn3nc(-c4c(Cl)cnn4C(C)C)cc32)cc1` (stereo not drawn) [Example 234, N-(2-(4-chloro-1-isopropyl-1H-pyrazol-5-yl)-4-(4-(1-ethyl-4-(trifluoromethyl)-1H-imidazol-2-yl)benzyl)-5-oxo-4,5,6,7-tetrahydropyrazolo[1,5-α]pyrimidin-6-yl)acetamide]: the pIC50 was 6.30 to 7.00.

Regarding `CCn1cc(C(F)(F)F)nc1-c1ccc(NC2CCCn3nc(-c4c(Cl)cnn4C(C)C)nc32)cc1` (stereo not drawn) [Example 256, 2-(4-chloro-1-isopropyl-1H-pyrazol-5-yl)-N-(4-(1-ethyl-4-(trifluoromethyl)-1H-imidazol-2-yl)phenyl)-5,6,7,8-tetrahydro-[1,2,4]triazolo[1,5-α]pyridin-8-amine], the pIC50 was 6.30 to 7.00.

On to `CCn1cc(C(F)(F)F)nc1-c1ccc(N(C)C2CCCn3nc(-c4c(Cl)cnn4C(C)C)nc32)cc1F` (stereo not shown) [Example 259], for which the pIC50 was 6.30 to 7.00.

On to `CCn1cc(C(F)(F)F)nc1-c1ccc(N(C)C2CCCn3nc(-c4c(Cl)cnn4C(C)C)nc32)cc1` (stereo not shown) [Example 260], for which the pIC50 was 6.30 to 7.00.

Turning to `CCn1cc(C(F)(F)F)nc1-c1ccc(CN2C(=O)CCn3nc(-c4ccnn4C(C)C)c(Cl)c32)cc1` [Example 268, 3-chloro-4-(4-(1-ethyl-4-(trifluoromethyl)-1H-imidazol-2-yl)benzyl)-2-(1-isopropyl-1H-pyrazol-5-yl)-6,7-dihydropyrazolo[1,5-α]pyrimidin-5(4H)-one], the negative logarithm of the IC50 (pIC50) is below 6.30.

Take `CCn1cc(C(F)(F)F)nc1-c1ccc(NC2CCCn3nc(-c4ccnn4C(C)C)c(Cl)c32)cc1F` (stereo not drawn) [Example 269, 3-chloro-N-(4-(1-ethyl-4-(trifluoromethyl)-1H-imidazol-2-yl)-3-fluorophenyl)-2-(1-isopropyl-1H-pyrazol-5-yl)-4,5,6,7-tetrahydropyrazolo[1,5-α]pyridin-4-amine]: the pIC50 is below 6.30.

Take `CC(C)n1ncc(Cl)c1-c1cc2n(n1)CCC(=O)N2Cc1ccc(-c2ncccc2OC(F)F)c(Cl)c1` [Example 271, 2-(4-chloro-1-isopropyl-1H-pyrazol-5-yl)-4-(3-chloro-4-(3-(difluoromethoxy)pyridin-2-yl)benzyl)-6,7-dihydropyrazolo[1,5-α]pyrimidin-5(4H)-one]: the pIC50 was 6.30 to 7.00.

`CC(C)n1ncc(Cl)c1-c1cc2n(n1)CCC(=O)N2Cc1ccc(-c2cncc(C(F)(F)F)n2)c(Cl)c1` [Example 272]: the pIC50 was below 6.30.

With `CC(C)n1ncc(Cl)c1-c1cc2n(n1)CCC(=O)N2Cc1ccc(-c2nccc(C(F)(F)F)n2)c(Cl)c1` [Example 273], the pIC50 was below 6.30.

With `COc1nccnc1-c1ccc(CN2C(=O)CCn3nc(-c4c(Cl)cnn4C(C)C)cc32)cc1Cl` [Example 274], the pIC50 was 6.30 to 7.00.

Consider `Cc1cn2ccnc(-c3ccc(CN4C(=O)CCn5nc(-c6c(Cl)cnn6C(C)C)cc54)cc3Cl)c2n1` [Example 275], for which the pIC50 was 6.30 to 7.00.
